Read-outs that look alike come from different tables or passages of the source.
Key:
[1] = test system: Eimeria (overall coccidiosis lesions); assay: Overall coccidiosis lesions (TMLS); format: in vivo, male Ross 308 broilers
[2] = test system: E. acervulina; assay: Coccidiosis lesion scoring (Johnson and Reid, 0-4); format: in vivo, male Ross 308 broilers; conditions: score 0 (no lesions) to 4 (severe lesions)
[3] = test system: experimentally induced NE (Eimeria spp. and Clostridium perfringens challenge); format: in vivo, male Ross 308 broilers
[4] = test system: E. maxima; assay: Coccidiosis lesion scoring (Johnson and Reid, 0-4); format: in vivo, male Ross 308 broilers; conditions: score 0 (no lesions) to 4 (severe lesions)
[5] = test system: necrotic enteritis (Clostridium perfringens inoculations); format: in vivo, male Ross 308 broilers; conditions: for NE score: four chickens per pen
[6] = compared to some amino acids such as glycine or arginine; cited from earlier work
[7] = day 16 to day 22, challenge period

With `N=C(N)NCC(=O)O` [GAA, guanidinoacetic acid] as the compound, how does the “E. maxima and coccidiosis lesions compared with untreated control” value ([1]; day 21) read?
The value was “lower amounts”.

What about the “TMLS (overall coccidiosis lesions)” value ([1]; day 21) of the same compound?
Its value is 0.60.

What about the “TMLS (overall coccidiosis lesions)” value ([1]; day 22) of the same compound?
The value was 0.94.

What about the “E. acervulina (lesion score)” value ([2]; day 21) of the same compound?
The value was 0.08.

What about the “E. acervuline (lesion score)” value ([2]; day 22) of the same compound?
The value was 0.06.

What about the “Effect on daily feed intake (DFI) over untreated birds” value ([3]; any period (p>0.05) except a small effect in the pre-challenge period) of the same compound?
The value was “no significant effect”.

And the “FCR compared with untreated birds” value ([3]; challenge period and overall)?
Its value is “significantly lower”.

And the “Daily weight gain (DWG) compared with IUC birds” value ([3]; challenge period from day 16 to d22)?
The value was “significantly higher”.

And the “BW_D0 (body weight)” value ([3]; day 0, before challenge, treatment mean)?
Its value is 46.

And the “DFI_D0-D16 (daily feed intake)” value ([3]; day 0 to day 16, pre-challenge)?
The value was 45.9.

And the “DWG_D0-D16 (daily weight gain)” value ([3]; day 0 to day 16, pre-challenge)?
Its value is 41.0.

What about the “FCR_D0-D16 (feed conversion ratio)” value ([3]; day 0 to day 16, pre-challenge) of the same compound?
Its value is 1.12.

What about the “DFI_D0-D42 (daily feed intake)” value ([3]; day 0 to day 42, overall) of the same compound?
Its value is 112.1.

And the “DWG_D0-D42 (daily weight gain)” value ([3]; day 0 to day 42, overall)?
Its value is 62.6.

What about the “FCR_D0-42 (feed conversion ratio)” value ([3]; day 0 to day 42, overall) of the same compound?
The value was 1.80.

And the “BW_D16 (body weight)” value ([3]; day 16, treatment mean)?
The value was 711.

What about the “DFI_D16-D22 (daily feed intake)” value [3, 7] of the same compound?
Its value is 84.4.

What about the “DWG_D16-D22 (daily weight gain)” value [3, 7] of the same compound?
Its value is 72.2.

What about the “FCR_D16-D22 (feed conversion ratio)” value [3, 7] of the same compound?
The value was 1.18.

What about the “BW_D22 (body weight)” value ([3]; day 22, after NE challenge, treatment mean) of the same compound?
Its value is 1161.

What about the “DFI_D22-D34 (daily feed intake)” value ([3]; day 22 to day 34) of the same compound?
Its value is 117.3.

And the “DWG_D22-D34 (daily weight gain)” value ([3]; day 22 to day 34)?
Its value is 75.3.

And the “FCR_D22-D34 (feed conversion ratio)” value ([3]; day 22 to day 34)?
Its value is 1.56.

What about the “BW_D34 (body weight)” value ([3]; day 34, treatment mean) of the same compound?
The value was 2463.

What about the “DFI_D34-D42 (daily feed intake)” value ([3]; day 34 to day 42) of the same compound?
Its value is 191.0.

What about the “DWG_D34-D42 (daily weight gain)” value ([3]; day 34 to day 42) of the same compound?
Its value is 108.7.

What about the “FCR_D34-D42 (feed conversion ratio)” value ([3]; day 34 to day 42) of the same compound?
Its value is 1.77.

What about the “BW_D42 (body weight)” value ([3]; day 42, treatment mean) of the same compound?
The value was 3332.

And the “Weight gained more than the negative control” value ([3]; grower phase)?
Its value is “approximately 9 g/day”.

What about the “Weight gained more than the negative control” value ([3]; overall) of the same compound?
Its value is “approximately 2 g/day”.

What about the “Percentage of NE related mortalities” value ([3]; overall, on par with antibiotics treated control) of the same compound?
Its value is “strongly reduced”.

And the NE related mortality ([3]; percentage of NE related mortalities, overall)?
The NE related mortality was 3.33.

And the “E. maxima (lesion score)” value ([4]; day 21)?
Its value is 0.52.

And the “E. maxima (lesion score)” value ([4]; day 22)?
The value was 0.88.

What about the “NE percentage (percentage of NE affected birds)” value ([5]; day 21) of the same compound?
The value was 85.

And the NE score ([5]; day 21)?
Its NE score is 3.52.

What about the “NE percentage (percentage of NE affected birds)” value ([5]; day 22) of the same compound?
The value was 73.

And the “NE scores and percentage of NE affected birds compared with untreated control” value ([5]; day 22)?
The value was “lower NE scores and a lower percentage of NE affected birds”.

What about the NE score ([5]; day 22) of the same compound?
Its NE score is 2.33.

What about the Solubility in water [6] of the same compound?
The Solubility in water was “rather low solubility in water”.
